Experimental data as given in ChEMBL document CHEMBL3232913, “Structural basis for the identification of the N-terminal domain of coronavirus nucleocapsid protein as an antiviral target” (2014).
Activity calls are given as the source filed them. The rule behind the calls is not given here.

How the values were obtained:
Human coronavirus OC43 [1] = assay: Inhibition of Human coronavirus OC43 replication infected in human 293T cells transfected with wild-type HCoV-OC43 N protein assessed as M mRNA level at 10 uM by RT-PCR analysis (reference value: 2.41 no unit); assay type: functional
[2] = target: T1, Nucleoprotein (Human coronavirus OC43) (UniProt P33469); assay: Inhibition of human coronavirus OC43 nucleocapsid protein expressed in Escherichia coli BL21(DE3) assessed as reduction of RNA-binding capacity by surface plasmon resonance analysis relative to control; settings: concentration not given here
T1 sequence (whole entry): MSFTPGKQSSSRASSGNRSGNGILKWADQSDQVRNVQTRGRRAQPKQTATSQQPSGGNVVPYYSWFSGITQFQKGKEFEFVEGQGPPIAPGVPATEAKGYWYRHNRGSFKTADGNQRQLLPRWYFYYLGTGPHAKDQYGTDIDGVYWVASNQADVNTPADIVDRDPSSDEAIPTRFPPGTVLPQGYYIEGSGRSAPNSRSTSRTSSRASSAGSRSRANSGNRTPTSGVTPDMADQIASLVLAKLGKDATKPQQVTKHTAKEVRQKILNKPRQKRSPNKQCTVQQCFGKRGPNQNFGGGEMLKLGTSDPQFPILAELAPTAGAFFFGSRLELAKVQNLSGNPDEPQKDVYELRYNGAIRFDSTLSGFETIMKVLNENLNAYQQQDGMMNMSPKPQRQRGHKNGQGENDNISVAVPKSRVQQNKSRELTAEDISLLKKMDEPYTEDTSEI

Human coronavirus OC43 [3] = assay: Inhibition of Human coronavirus OC43 replication infected in human 293T cells assessed as M mRNA level at 10 uM by RT-PCR analysis (reference value: 0.32 no unit); assay type: functional
[4] = target: T1, Nucleoprotein (Human coronavirus OC43); settings: 10 uM
Description: Inhibition of human coronavirus OC43 nucleocapsid protein expressed in Escherichia coli BL21(DE3) assessed as reduction of RNA-binding capacity by measuring resonance unit at 10 uM by surface plasmon resonance analysis relative to control

| Compound | fold change (FC) (Human coronavirus OC43 [1]) | inhibition [2] [%] | fold change (FC) (Human coronavirus OC43 [3]) | inhibition [4] |
| --- | --- | --- | --- | --- |
| O=C1C(Cl)=C(NCCN2CCOCC2)C(=O)c2ncccc21 | 2.46 | > 10 | 0.22 |  |
| CN(C)CC(=O)Nc1ccc2[nH]c(=O)c3ccccc3c2c1.Cl [PJ34] | 0.65 | > 10 | 0.11 | Active |
